Experimental findings from ChEMBL document CHEMBL4483862, “Open-source discovery of chemical leads for next-generation chemoprotective antimalarials” (2018) are described below.

This experiment relates to Plasmodium berghei. Kind of experiment: Luciferase/luciferin-expressing antifolate-resistant parasites were used to infect a culture of HepG2 cells that were pre-incubated with compounds. Infected hepatocytes emit light due to the luciferase reaction. Assay results are presented as the percent inhibition of light emission compared to control. […]. The format is functional. As to conditions: sporozoite; for IC90: read-out: LUCIFERASE INFECTION ASSAY - IC90.

pIC50: −log10 of the molar value. Where only a bound is given, the exact number is not on record here.

As a reminder, the pIC50 is −log10 of the IC50, conventionally taken in molar units. What is called IC90 is the concentration needed for an effect of 90%. Regarding `Cn1cc(-c2cnc3cnc(-c4ccncc4)cn23)cn1`, the IC90 was more than 11.9 µM. In addition, the negative-log IC50 (pIC50) (HEPG2TOX_HILL_SLOPE 1.93, HEPG2TOX_R_SQUARED 0.473, PBLUC_HILL_SLOPE 0.98, PBLUC_R_SQUARED 0.306, read-out: LUCIFERASE INFECTION ASSAY - IC50) was 5.00.
On to `O=C1Nc2ccccc2/C1=C/c1ccccc1N1CCOCC1`, for which the 90% effect concentration (IC90) was more than 10.8 µM. In addition, the pIC50 (HEPG2TOX_HILL_SLOPE 1.93, HEPG2TOX_R_SQUARED 0.799, PBLUC_HILL_SLOPE 2.49, PBLUC_R_SQUARED 0.295, read-out: LUCIFERASE INFECTION ASSAY - IC50) was 5.23.
In the case of `Cc1cc(C)c(S(=O)(=O)Nc2cc(C)nn2-c2ccccn2)c(C)c1`, the IC90 was determined as 3.28 µM. Also, the pIC50 (HEPG2TOX_HILL_SLOPE 1.93, HEPG2TOX_R_SQUARED 0.937, PBLUC_HILL_SLOPE 16.1, PBLUC_R_SQUARED 0.725, read-out: LUCIFERASE INFECTION ASSAY - IC50) was 5.54.
As for `CN(C)c1ccc(-c2ccc3nnc(-c4ccccc4)n3c2)cc1`, the IC90 came to 4.59 µM. Further, the negative logarithm of the IC50 (pIC50) (HEPG2TOX_HILL_SLOPE 1.89, HEPG2TOX_R_SQUARED 0.955, PBLUC_HILL_SLOPE 2.66, PBLUC_R_SQUARED 0.575, read-out: LUCIFERASE INFECTION ASSAY - IC50) was 5.70.
`COc1ccc(C(OC(=O)c2ccccc2)c2nccc3ccccc23)cc1` (stereo not drawn): the IC90 was more than 8.93 µM. In addition, the pIC50 (HEPG2TOX_HILL_SLOPE 1.92, HEPG2TOX_R_SQUARED 0.889, PBLUC_HILL_SLOPE 0.417, PBLUC_R_SQUARED 0.183, read-out: LUCIFERASE INFECTION ASSAY - IC50) was 5.24.
Regarding `Cc1nc(NCc2ccc(-n3ccnc3)nc2)c2c(-c3ccccc3)csc2n1`, the IC90 came out at 4.03 µM. Also, the pIC50 (HEPG2TOX_HILL_SLOPE 1.9, HEPG2TOX_R_SQUARED 0.893, PBLUC_HILL_SLOPE 8.93, PBLUC_R_SQUARED 0.705, read-out: LUCIFERASE INFECTION ASSAY - IC50) is 5.50.
For the compound `COc1ccc(-c2cc3ncnc(NCc4ccc(N5CCN(C)CC5)nc4)c3s2)cc1`, the IC90 amounted to 4.79 µM. The pIC50 (HEPG2TOX_HILL_SLOPE 1.93, HEPG2TOX_R_SQUARED 0.825, PBLUC_HILL_SLOPE 2.26, PBLUC_R_SQUARED 0.8, read-out: LUCIFERASE INFECTION ASSAY - IC50) is 5.74.
For `N#Cc1c(Cl)cccc1N1CCCC1c1ccc2c(c1)OCCCO2` (stereo not drawn), the IC90 is more than 10 µM. The pIC50 (HEPG2TOX_HILL_SLOPE 1.92, HEPG2TOX_R_SQUARED 0.934, read-out: LUCIFERASE INFECTION ASSAY - IC50) is less than 5.00.
Take `c1csc(CNc2ccc3ncc(-c4ccc5[nH]ccc5c4)n3n2)c1`: the concentration for an effect of 90% (IC90) was more than 9.55 µM. For the same compound, the pIC50 (HEPG2TOX_HILL_SLOPE 1.89, HEPG2TOX_R_SQUARED 0.971, PBLUC_HILL_SLOPE 2.39, PBLUC_R_SQUARED 0.271, read-out: LUCIFERASE INFECTION ASSAY - IC50) was 5.31.
Take `COc1cc(C(=O)N2CC=C(c3c[nH]c4ccccc34)CC2)cc(Cl)c1OC`: the IC90 was more than 10 µM. Besides, the pIC50 (HEPG2TOX_HILL_SLOPE 1.93, HEPG2TOX_R_SQUARED 0.934, PBLUC_HILL_SLOPE 11.8, PBLUC_R_SQUARED 0.218, read-out: LUCIFERASE INFECTION ASSAY - IC50) was 5.05.
On to `CCOc1ccc(-c2nnc(SCc3csc(Nc4ccc(C)cc4)n3)n2-c2ccccc2F)cc1`, for which the 90% effect concentration (IC90) is more than 10 µM. Further, where the note is “HEPG2TOX_HILL_SLOPE 1.93, HEPG2TOX_R_SQUARED 0.706, PBLUC_HILL_SLOPE 2.19, PBLUC_R_SQUARED 0.586, read-out: LUCIFERASE INFECTION ASSAY - IC50”, the negative-log IC50 (pIC50) is 5.28.
For the compound `O=C(Nc1ccc(CN2CCCC2)cc1)c1ccc(-n2cnc3ccccc32)cc1`, the IC90 is more than 10 µM. Besides, the pIC50 (HEPG2TOX_HILL_SLOPE 1.93, HEPG2TOX_R_SQUARED 0.859, PBLUC_HILL_SLOPE 3.59, PBLUC_R_SQUARED 0.621, read-out: LUCIFERASE INFECTION ASSAY - IC50) was 5.24.
As to `CC(=O)c1ccccc1NC(=O)COC(=O)c1c2c(nc3ccccc13)CCC2`, the IC90 is more than 10 µM. In addition, the pIC50 (HEPG2TOX_HILL_SLOPE 1.9, HEPG2TOX_R_SQUARED 0.384, PBLUC_HILL_SLOPE 3.75, PBLUC_R_SQUARED 0.218, read-out: LUCIFERASE INFECTION ASSAY - IC50) is 5.21.
As for `O=C(Nc1ccc(-c2nc3ccccc3[nH]2)cc1)c1ccc(NC(=O)C2CC2)s1`, the IC90 is 0.674 µM. Besides, the pIC50 (HEPG2TOX_HILL_SLOPE 1.89, HEPG2TOX_R_SQUARED 0.991, PBLUC_HILL_SLOPE 4.29, PBLUC_R_SQUARED 0.909, read-out: LUCIFERASE INFECTION ASSAY - IC50) was 6.39.
With `Cn1cc(-c2cnc3cnc(-c4ccsc4)cn23)cn1`, the IC90 was more than 11.7 µM. For the same compound, the pIC50 (HEPG2TOX_HILL_SLOPE 1.9, HEPG2TOX_R_SQUARED 0.409, PBLUC_HILL_SLOPE 1.49, PBLUC_R_SQUARED 0.155, read-out: LUCIFERASE INFECTION ASSAY - IC50) was less than 4.93.
For `COc1ccc(-n2nc(C)c3c(=O)cc(C(C)(C)C)[nH]c32)cc1`, the IC90 was 5.81 µM. The pIC50 (HEPG2TOX_HILL_SLOPE 1.9, HEPG2TOX_R_SQUARED 0.976, PBLUC_HILL_SLOPE 7.24, PBLUC_R_SQUARED 0.294, read-out: LUCIFERASE INFECTION ASSAY - IC50) is 5.37.
Regarding `CC(C)c1ccc(Nc2nccc3nc(-c4cccc(F)c4)[nH]c23)cc1`, the concentration for an effect of 90% (IC90) was more than 10 µM. Under “HEPG2TOX_HILL_SLOPE 1.91, HEPG2TOX_R_SQUARED 0.651, PBLUC_HILL_SLOPE 0.872, PBLUC_R_SQUARED 0.722, read-out: LUCIFERASE INFECTION ASSAY - IC50”, the pIC50 was 5.86.
As for `C/C(=N\O)c1cnc(-c2ccccc2)s1`, the IC90 was found to be 14.8 µM. Also, under “HEPG2TOX_HILL_SLOPE 1.93, HEPG2TOX_R_SQUARED 0.937, PBLUC_HILL_SLOPE 2.91, PBLUC_R_SQUARED 0.0759, read-out: LUCIFERASE INFECTION ASSAY - IC50”, the pIC50 is 5.16.
For the compound `COc1cc(-c2[nH]nc3nccc(/C=C/c4ccccc4)c23)cc(OC)c1OC`, the IC90 was 0.962 µM. Besides, the pIC50 (HEPG2TOX_HILL_SLOPE 1.93, HEPG2TOX_R_SQUARED 0.947, PBLUC_HILL_SLOPE 2.35, PBLUC_R_SQUARED 0.701, read-out: LUCIFERASE INFECTION ASSAY - IC50) is 6.42.
Consider `O=C(Nc1cccc(Cl)c1)C1=COC2=NC(=O)N(Cc3ccccc3)CCN12`, for which the IC90 was more than 10 µM. Also, the pIC50 (HEPG2TOX_HILL_SLOPE 1.91, HEPG2TOX_R_SQUARED 0.961, read-out: LUCIFERASE INFECTION ASSAY - IC50) is less than 5.00.
As to `COc1ccc(OC)c(CCNc2nc3cnc(-c4ccc(Cl)cc4)cc3n2C)c1`, the IC90 came out at 3.74 µM. Besides, the pIC50 (HEPG2TOX_HILL_SLOPE 1.93, HEPG2TOX_R_SQUARED 0.878, PBLUC_HILL_SLOPE 2.27, PBLUC_R_SQUARED 0.668, read-out: LUCIFERASE INFECTION ASSAY - IC50) was 5.85.
For the compound `CC(C)n1ncc2cc(C(=O)Nc3cccc4c3CCCC4)cnc21`, the IC90 was 8.92 µM. Moreover, the pIC50 (HEPG2TOX_HILL_SLOPE 1.91, HEPG2TOX_R_SQUARED 0.864, PBLUC_HILL_SLOPE 1.61, PBLUC_R_SQUARED 0.644, read-out: LUCIFERASE INFECTION ASSAY - IC50) was 5.64.
Regarding `Cc1ccc(F)cc1C(=O)Nc1nc2ccccn2c1C(=O)NC1CCCCC1`, the IC90 amounted to 1.12 µM. In addition, under “HEPG2TOX_HILL_SLOPE 1.92, HEPG2TOX_R_SQUARED 0.809, PBLUC_HILL_SLOPE 11.3, PBLUC_R_SQUARED 0.608, read-out: LUCIFERASE INFECTION ASSAY - IC50”, the negative-log IC50 (pIC50) was 6.04.
With `CC(C)Nc1nc(-c2ccccc2CO)c2sc(-c3ccccc3)cc2n1`, the IC90 worked out at 0.949 µM. Under “HEPG2TOX_HILL_SLOPE 1.93, HEPG2TOX_R_SQUARED 0.921, PBLUC_HILL_SLOPE 16.9, PBLUC_R_SQUARED 0.634, read-out: LUCIFERASE INFECTION ASSAY - IC50”, the pIC50 was 6.08.
For `O=C(CSc1nnc(-c2c[nH]c3ccccc23)n1C1CC1)Nc1ccccc1N1CCCC1`, the IC90 is more than 10 µM. For the same compound, the pIC50 (HEPG2TOX_HILL_SLOPE 1.91, HEPG2TOX_R_SQUARED 0.598, PBLUC_HILL_SLOPE 0.845, PBLUC_R_SQUARED 0.661, read-out: LUCIFERASE INFECTION ASSAY - IC50) was 5.44.
Regarding `Cc1cc(C)c2c(=O)cc(C(=O)Nc3cccnc3)oc2c1`, the IC90 was found to be 4.06 µM. Also, the pIC50 (HEPG2TOX_HILL_SLOPE 1.93, HEPG2TOX_R_SQUARED 0.965, PBLUC_HILL_SLOPE 5.85, PBLUC_R_SQUARED 0.609, read-out: LUCIFERASE INFECTION ASSAY - IC50) is 5.55.
In the case of `Cc1cccc2c(=O)n(CC(=O)NCc3ccc(C(=O)N4CCCCC4)cc3)cnc12`, the IC90 was 3.14 µM. For the same compound, the pIC50 (HEPG2TOX_HILL_SLOPE 1.92, HEPG2TOX_R_SQUARED 0.972, PBLUC_HILL_SLOPE 11.2, PBLUC_R_SQUARED 0.559, read-out: LUCIFERASE INFECTION ASSAY - IC50) is 5.59.
As for `Brc1cc2c(cc1CSc1ncnc3ccccc13)OCO2`, the IC90 turned out to be 1.53 µM. Moreover, the pIC50 (HEPG2TOX_HILL_SLOPE 1.93, HEPG2TOX_R_SQUARED 0.941, PBLUC_HILL_SLOPE 155, PBLUC_R_SQUARED 0.104, read-out: LUCIFERASE INFECTION ASSAY - IC50) was 5.82.
With `CCn1c2ccccc2c2cc(Nc3c(C#N)c(=O)n(C)c(=O)n3C)ccc21`, the IC90 came to 0.508 µM. The pIC50 (HEPG2TOX_HILL_SLOPE 1.91, HEPG2TOX_R_SQUARED 0.9, PBLUC_HILL_SLOPE 11.3, PBLUC_R_SQUARED 0.663, read-out: LUCIFERASE INFECTION ASSAY - IC50) was 6.38.
